Key:
Details in all cases: exposure time: 72 h
[1] = tested on: E57 (patient-derived glioblastoma stem cells of mesenchymal subtype); experiment: phenotypic distance (Euclidean, principal components) from DMSO controls (arbitrary units); higher = stronger morphological change
[2] = tested on: E21 (patient-derived glioblastoma stem cells of mesenchymal subtype); experiment: as above
[3] = tested on: E13 (patient-derived glioblastoma stem cells of classical subtype); experiment: as above
[4] = tested on: E31 (patient-derived glioblastoma stem cells of proneural subtype); experiment: as above
[5] = tested on: E28 (patient-derived glioblastoma stem cells of classical subtype); experiment: as above
[6] = tested on: E34 (patient-derived glioblastoma stem cells of proneural subtype); experiment: as above
[7] = tested on: FT3469 (normal neural stem cell line); experiment: as above
[8] = tested on: E57; experiment: surviving fraction (nuclei count normalised to DMSO); higher = more cells surviving (less toxic)
[9] = tested on: E21; experiment: as above
[10] = tested on: E13; experiment: as above
[11] = tested on: E31; experiment: as above
[12] = tested on: E28; experiment: as above
[13] = tested on: E34; experiment: as above
[14] = tested on: FT3469; experiment: as above
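Wherever phenotypic distance (Euclidean, principal components) from DMSO controls is given: cell Painting imaging in 384-well plates, CellProfiler features reduced to at least 20 principal components, Euclidean distance versus same-plate DMSO vehicle wells (0.1% v/v), median over six images per well.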
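Wherever surviving fraction (nuclei count normalised to DMSO) is given: nuclei counted by high-content imaging of Hoechst-stained cells in laminin-coated 384-well plates, relative to 0.1% DMSO vehicle wells, with staurosporine as cell-death control.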

COc1cc(/C=C/C(=O)N2CCC=CC2=O)cc(OC)c1OC [Piperlongumine]
Details	phenotypic distance	surviving fraction
[1], 4.1 nM	1.56	–
[1], 12.3 nM	0.849	–
[1], 37 nM	0.56	–
[1], 111.1 nM	0.314	–
[1], 333.3 nM	0.518	–
[1], 1000 nM	1.93	–
[1], 3000 nM	6.93	–
[2], 4.1 nM	1.09	–
[2], 12.3 nM	0.626	–
[2], 37 nM	0.701	–
[2], 111.1 nM	0.313	–
[2], 333.3 nM	0.682	–
[2], 1000 nM	3.07	–
[2], 3000 nM	9.28	–
[3], 4.1 nM	0.433	–
[3], 12.3 nM	0.675	–
[3], 37 nM	0.516	–
[3], 111.1 nM	2.59	–
[3], 333.3 nM	0.883	–
[3], 1000 nM	0.903	–
[3], 3000 nM	1.87	–
[4], 4.1 nM	1.19	–
[4], 12.3 nM	0.591	–
[4], 37 nM	0.723	–
[4], 111.1 nM	0.471	–
[4], 333.3 nM	1.14	–
[4], 1000 nM	1.51	–
[4], 3000 nM	10.8	–
[5], 4.1 nM	0.727	–
[5], 12.3 nM	1.04	–
[5], 37 nM	0.697	–
[5], 111.1 nM	0.848	–
[5], 333.3 nM	0.74	–
[5], 1000 nM	2.27	–
[5], 3000 nM	5.12	–
[6], 4.1 nM	1.26	–
[6], 12.3 nM	0.821	–
[6], 37 nM	1.16	–
[6], 111.1 nM	0.677	–
[6], 333.3 nM	0.524	–
[6], 1000 nM	0.889	–
[6], 3000 nM	1.82	–
[7], 4.1 nM	0.686	–
[7], 12.3 nM	0.732	–
[7], 37 nM	0.828	–
[7], 111.1 nM	0.586	–
[7], 333.3 nM	1.07	–
[7], 1000 nM	1.12	–
[7], 3000 nM	3.88	–
[8], 4.1 nM	–	1.02
[8], 12.3 nM	–	0.96
[8], 37 nM	–	1.03
[8], 111.1 nM	–	1.03
[8], 333.3 nM	–	1.06
[8], 1000 nM	–	1
[8], 3000 nM	–	0.285
[9], 4.1 nM	–	1.01
[9], 12.3 nM	–	0.979
[9], 37 nM	–	0.997
[9], 111.1 nM	–	0.997
[9], 333.3 nM	–	0.908
[9], 1000 nM	–	0.609
[9], 3000 nM	–	0.104
[10], 4.1 nM	–	0.958
[10], 12.3 nM	–	0.883
[10], 37 nM	–	1.05
[10], 111.1 nM	–	0.818
[10], 333.3 nM	–	0.823
[10], 1000 nM	–	0.88
[10], 3000 nM	–	0.767
[11], 4.1 nM	–	0.957
[11], 12.3 nM	–	1.09
[11], 37 nM	–	1.19
[11], 111.1 nM	–	1.12
[11], 333.3 nM	–	0.938
[11], 1000 nM	–	0.684
[11], 3000 nM	–	0.00892
[12], 4.1 nM	–	1.02
[12], 12.3 nM	–	1.1
[12], 37 nM	–	1.13
[12], 111.1 nM	–	0.988
[12], 333.3 nM	–	1.03
[12], 1000 nM	–	0.538
[12], 3000 nM	–	0.256
[13], 4.1 nM	–	0.873
[13], 12.3 nM	–	0.984
[13], 37 nM	–	1.11
[13], 111.1 nM	–	1.04
[13], 333.3 nM	–	1.06
[13], 1000 nM	–	0.863
[13], 3000 nM	–	0.559
[14], 4.1 nM	–	1.05
[14], 12.3 nM	–	0.946
[14], 37 nM	–	0.901
[14], 111.1 nM	–	0.983
[14], 333.3 nM	–	0.881
[14], 1000 nM	–	0.866
[14], 3000 nM	–	0.7

Source: the supplement of paper PMC13207355
